Experimental data from patent publication US10329289B2, “6,7-dihydro-5H-pyrrolo[3,4-B]pyridin-5-one allosteric modulators of the M4 muscarinic acetylcholine receptor” (Merck Sharp & Dohme Corp., priority 2015, dated 2019).
pEC50: −log10 of the molar value.

biological target: T1, human M4 muscarinic acetylcholine receptor (Homo sapiens, UniProt P08173); assay: human FLIPR-based M4 PAM assay (Ca2+ mobilization, CHO-K1 cells with human M4 receptor and Gαqi5); assay type: cell-based; settings: acetylcholine at 20% of maximum response, read-out: M4 PAM IP
T1 construct: expressed in transfected cells; host or cells: CHO-K1
T1 sequence (P08173 1-479): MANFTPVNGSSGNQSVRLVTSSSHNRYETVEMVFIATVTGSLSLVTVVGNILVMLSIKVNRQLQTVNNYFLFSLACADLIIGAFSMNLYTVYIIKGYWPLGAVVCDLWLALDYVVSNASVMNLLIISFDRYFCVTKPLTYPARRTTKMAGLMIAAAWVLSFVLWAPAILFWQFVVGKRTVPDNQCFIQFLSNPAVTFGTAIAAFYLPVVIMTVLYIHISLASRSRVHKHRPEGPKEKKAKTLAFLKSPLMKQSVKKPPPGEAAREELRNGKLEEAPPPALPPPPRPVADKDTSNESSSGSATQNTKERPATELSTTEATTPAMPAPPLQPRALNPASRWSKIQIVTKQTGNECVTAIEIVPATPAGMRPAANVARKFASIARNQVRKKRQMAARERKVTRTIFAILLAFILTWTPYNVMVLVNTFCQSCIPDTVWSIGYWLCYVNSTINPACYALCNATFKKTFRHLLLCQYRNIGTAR
Method in brief: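 CHO-K1 cells stably expressing human M4 and chimeric Gαqi5 were dye-loaded ~1 h at 37 °C and read for Ca2+ fluorescence. Compound followed by acetylcholine at an EC20 (sometimes an EC70 third addition); inflection point from a 4-parameter logistic fit.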

| SMILES | pEC50 |
| --- | --- |
| CCc1cc2c(nc1N1CC[C@@H](Oc3ccc4c(c3)COC4)[C@@H](F)C1)CNC2=O [Example 214, 2-((3S,4R)-4-((1,3-dihydro-2-benzofuran-5-yl)oxy)-3-fluoropiperidin-1-yl)-3-ethyl-6,7-dihydro-5H-pyrrolo[3,4-b]pyridin-5-one] | 7.03 |
| Cc1cc2c(nc1N1CCC(Oc3cccc(C#N)c3)CC1)[C@H](C)N(C)C2=O [Example 28B, (S)-3-((1-(3,6,7-trimethyl-5-oxo-6,7-dihydro-5H-pyrrolo[3,4-b]pyridin-2-yl)piperidin-4-yl)oxy)benzonitrile] | 5.70 |
| CCN1Cc2nc(N3CCC(Oc4ccc5c(c4)COC5)CC3)c(C)cc2C1=O [Example 244A, 2-(4-((1,3-dihydro-2-benzofuran-5-yl)oxy)piperidin-1-yl)-6-ethyl-3-methyl-6,7-dihydro-5H-pyrrolo[3,4-b]pyridin-5-one] | 7.55 |
| Cc1cc2c(nc1N1CC[C@H](Oc3cccc(C#N)c3)[C@@H](O)C1)CNC2=O [Example 43B, 3-(((3S,4S)-3-hydroxy-1-(3-methyl-5-oxo-6,7-dihydro-5H-pyrrolo[3,4-b]pyridin-2-yl)piperidin-4-yl)oxy)benzonitrile] | 6.44 |
| Cc1cc2c(nc1N1CCC(Oc3cccc(Cl)c3)CC1)CNC2=O [Example 74, 2-(4-(3-chlorophenoxy)piperidin-1-yl)-3-methyl-6,7-dihydro-5H-pyrrolo[3,4-b]pyridin-5-one] | 7.34 |
| Cc1cc2c(nc1N1CCC(Oc3ccc4c(cnn4C)c3)CC1)[C@H](CO)N(C)C2=O [Example 360, (R)-7-(hydroxymethyl)-3,6-dimethyl-2-(4-((1-methyl-1H-indazol-5-yl)oxy)piperidin-1-yl)-6,7-dihydro-5H-pyrrolo[3,4-b]pyridin-5-one] | 5.77 |
| Cc1cc2c(nc1N1CC[C@@H](Oc3cnc4c(c3)COC4)[C@H](F)C1)CNC2=O [Example 48A, 2-((3R,4R)-4-((5,7-dihydrofuro[3,4-b]pyridin-3-yl)oxy)-3-fluoropiperidin-1-yl)-3-methyl-6,7-dihydro-5H-pyrrolo[3,4-b]pyridin-5-one] | 7.17 |
| Cc1cc2c(nc1N1CCC(Oc3cccc(C#N)c3)CC1)C(C)N(C)C2=O (centres unmarked) [Example 13, 3-((1-(3,6,7-trimethyl-5-oxo-6,7-dihydro-5H-pyrrolo[3,4-b]pyridin-2-yl)piperidin-4-yl)oxy)benzonitrile] | 6.76 |
| Cc1cc2c(nc1N1CCC(Oc3ccc(F)c(F)c3)CC1)[C@H](CO)N(C)C2=O [Example 348, (R)-2-(4-(3,4-difluorophenoxy)piperidin-1-yl)-7-(hydroxymethyl)-3,6-dimethyl-6,7-dihydro-5H-pyrrolo[3,4-b]pyridin-5-one] | 5.09 |
| Cc1cc2c(nc1N1CCC(Oc3ccc4c(c3)CC(=O)C4)CC1)CNC2=O [Example 373, 3-Methyl-2-(4-((2-oxo-2,3-dihydro-1H-inden-5-yl)oxy)piperidin-1-yl)-6,7-dihydro-5H-pyrrolo[3,4-b]pyridin-5-one] | 7.16 |
| CCc1cc2c(nc1N1CCC(Oc3ccc4c(c3)OCC4)CC1)CN(CCO)C2=O [Example 265A, 2-(4-((2,3-dihydrobenzofuran-6-yl)oxy)piperidin-1-yl)-3-ethyl-6-(2-hydroxyethyl)-6,7-dihydro-5H-pyrrolo[3,4-b]pyridin-5-one] | 7.00 |
| COc1ccc(OC2CCN(c3nc4c(c(CF)c3C)C(=O)NC4)CC2)cn1 [Example 305, 4-(fluoromethyl)-2-(4-((6-methoxypyridin-3-yl)oxy)piperidin-1-yl)-3-methyl-6,7-dihydro-5H-pyrrolo[3,4-b]pyridin-5-one] | 6.62 |
| Cc1cc(N2CCC(OCC3(C)CC3)CC2)nc2c1C(=O)NC2 [Example 224, 4-methyl-2-(4-((1-methylcyclopropyl)methoxy)piperidin-1-yl)-6,7-dihydro-5H-pyrrolo[3,4-b]pyridin-5-one] | 5.45 |
| Cc1cc2c(nc1N1CCC(OCC(F)(F)F)CC1)CNC2=O [Example 172A, 3-methyl-2-(4-(2,2,2-trifluoroethoxy)piperidin-1-yl)-6,7-dihydro-5H-pyrrolo[3,4-b]pyridin-5-one] | 6.04 |
| COc1ccc(OC2CCN(c3nc4c(cc3C)C(=O)N(C)C4(C)C)CC2)cn1 [Example 17, 2-(4-((6-methoxypyridin-3-yl)oxy)piperidin-1-yl)-3,6,7,7-tetramethyl-6,7-dihydro-5H-pyrrolo[3,4-b]pyridin-5-one] | 5.93 |
| COC(=O)c1c(C)c(N2CCC(Oc3ccc(OC)nc3)CC2)nc2c1C(=O)NC2 [Example 190, methyl 2-(4-((6-methoxypyridin-3-yl)oxy)piperidin-1-yl)-3-methyl-5-oxo-6,7-dihydro-5H-pyrrolo[3,4-b]pyridine-4-carboxylate] | 5.25 |

| SMILES | pEC50 |
| --- | --- |
| CCc1cc2c(nc1N1CC[C@H](OCC3(C)CC3)[C@@H](F)C1)CNC2=O [Example 6A, 3-ethyl-2-((3S,4S)-3-fluoro-4-((1-methylcyclopropyl)methoxy)piperidin-1-yl)-6,7-dihydro-5H-pyrrolo[3,4-b]pyridin-5-one] | 6.82 |
| Cc1cc2c(nc1N1CCC(Oc3cccc(CO)c3)CC1)CNC2=O [Example 309, 2-(4-(3-(Hydroxymethyl)phenoxy)piperidin-1-yl)-3-methyl-6,7-dihydro-5H-pyrrolo[3,4-b]pyridin-5-one] | 7.33 |
| CCc1cc2c(nc1N1CCC(Oc3ccc4c(c3)OCC4)CC1)CNC2=O [Example 198A, 2-(4-((2,3-dihydrobenzofuran-6-yl)oxy)piperidin-1-yl)-3-ethyl-6,7-dihydro-5H-pyrrolo[3,4-b]pyridin-5-one] | 6.96 |
| Cc1cc2c(nc1N1CCC(Oc3ccc(CO)cc3)CC1)CNC2=O [Example 151, 2-(4-(4-(hydroxymethyl)phen-oxy)piperidin-1-yl)-3-methyl-6,7-dihydro-5H-pyrrolo[3,4-b]pyridin-5-one] | 7.49 |
| COCc1cccc(OC2CCN(c3nc4c(cc3C)C(=O)NC4)CC2)c1 [Example 57, 2-(4-(3-(methoxymethyl)phenoxy)piperidin-1-yl)-3-methyl-6,7-dihydro-5H-pyrrolo[3,4-b]pyridin-5-one] | 7.21 |
| Cc1cc2c(nc1N1CCC(Oc3ccc4c(c3)COC4)CC1)CNC2=O [Example 159, 2-[4-(1,3-Dihydro-2-benzofuran-5-yloxy)piperidin-1-yl]-3-methyl-6,7-dihydro-5H-pyrrolo[3,4-b]pyridin-5-one] | 7.55 |
| Cc1cc2c(nc1N1CCC(Oc3ccc4c(c3)c(C)nn4CCO)CC1)CNC2=O [Example 153, 2-(4-((1-(2-hydroxyethyl)-3-methyl-1H-indazol-5-yl)oxy)piperidin-1-yl)-3-methyl-6,7-dihydro-5H-pyrrolo[3,4-b]pyridin-5-one] | 6.28 |
| COc1ccc(OC2CCN(c3nc4c(c(C)c3C)C(=O)NC4)CC2)cn1 [Example 218, 2-(4-((6-Methoxypyridin-3-yl)oxy)piperidin-1-yl)-3,4-dimethyl-6,7-dihydro-5H-pyrrolo[3,4-b]pyridin-5-one] | 7.42 |
| CCC1c2nc(N3CCC(Oc4ccc(OC)nc4)CC3)c(C)cc2C(=O)N1CC (centres unmarked) [Example 233, 6,7-Diethyl-2-(4-((6-methoxypyridin-3-yl)oxy)piperidin-1-yl)-3-methyl-6,7-dihydro-5H-pyrrolo[3,4-b]pyridin-5-one] | 6.40 |
| COc1ccc(OC2CCN(c3nc4c(cc3C)C(=O)N(CCN(C)C)C4)CC2)cn1 [Example 235, 6-(2-(dimethylamino)ethyl)-2-(4-((6-methoxypyridin-3-yl)oxy)piperidin-1-yl)-3-methyl-6,7-dihydro-5H-pyrrolo[3,4-b]pyridin-5-one] | 6.49 |
| Cc1cc2c(nc1N1CCC(Oc3ccc(OCC(F)(F)F)nc3)CC1)CNC2=O [Example 120, 3-methyl-2-(4-((6-(2,2,2-trifluoroethoxy)pyridin-3-yl)oxy)piperidin-1-yl)-6,7-dihydro-5H-pyrrolo[3,4-b]pyridin-5-one] | 6.59 |
| Cc1cc2c(nc1N1CCC(Oc3cncc(C#N)c3)CC1)CNC2=O [Example 50, 5-((1-(3-methyl-5-oxo-6,7-dihydro-5H-pyrrolo[3,4-b]pyridin-2-yl)piperidin-4-yl)oxy)nicotinonitrile] | 6.18 |
| Cc1cc2c(nc1N1CCC(Oc3ccc4c(cnn4CCO)c3)CC1)CNC2=O [Example 371, 2-(4-((1-(2-Hydroxyethyl)-1H-indazol-5-yl)oxy)piperidin-1-yl)-3-methyl-6,7-dihydro-5H-pyrrolo[3,4-b]pyridin-5-one] | 7.00 |
| Cc1cc2c(nc1N1CCC(Oc3ccc4[nH]nc(Cl)c4c3)CC1)CNC2=O [Example 313, 2-(4-((3-Chloro-1H-indazol-5-yl)ox)piperidin-1-yl)-3-methyl-6,7-dihydro-5H-pyrrolo[3,4-b]pyridin-5-one] | 7.52 |
| Cc1cc2c(nc1N1CCC(Oc3ccc4c(c3)C(=O)NCC4)CC1)CNC2=O [Example 135, 7-((1-(3-methyl-5-oxo-6,7-dihydro-5H-pyrrolo[3,4-b]pyridin-2-yl)piperidin-4-yl)oxy)-3,4-dihydroisoquinolin-1(2H)-one] | 6.66 |
| Cc1cc2c(nc1N1CCC(Oc3ccc4[nH]nc(C)c4c3)CC1)CNC2=O [Example 117, 3-methyl-2-(4-((3-methyl-1H-indazol-5-yl)oxy)piperidin-1-yl)-6,7-dihydro-5H-pyrrolo[3,4-b]pyridin-5-one] | 7.77 |
